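Method: 48-hour compound exposure of cells in 96-well plates, five concentrations, linear interpolation of endpoints. Abbreviation: GI50, concentration required for 50% inhibition of growth.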 The source made the active and inactive calls. No stated cut-off is given here; in the data, active = GI50 up to about 1.1 µM and inactive = higher.
Assays:
Assay in all cases: NCI-60 cell line screen, 48 h
HCT-15 = system: HCT-15
CCRF-CEM = system: CCRF-CEM
SK-MEL-28 = system: SK-MEL-28
OVCAR-3 = system: OVCAR-3
NCI-H460 = system: NCI-H460
HT-29 = system: HT-29
UACC-62 = system: UACC-62
HOP-62 = system: HOP-62
RPMI-8226 = system: RPMI-8226
NCI-H522 = system: NCI-H522
HOP-92 = system: HOP-92
KM12 = system: KM12
NCI/ADR-RES = system: NCI/ADR-RES
OVCAR-4 = system: OVCAR-4
A498 = system: A498
NCI-H23 = system: NCI-H23
SNB-75 = system: SNB-75
HL-60 = system: HL-60
SK-MEL-2 = system: SK-MEL-2
MDA-N = system: MDA-N

Row | Structure (SMILES) | GI50 (HCT-15) [µM] | GI50 (CCRF-CEM) | GI50 (SK-MEL-28) | GI50 (OVCAR-3) | GI50 (NCI-H460) | GI50 (HT-29) | GI50 (UACC-62) | GI50 (HOP-62) | GI50 (RPMI-8226) | GI50 (NCI-H522) | GI50 (HOP-92) | GI50 (KM12) | GI50 (NCI/ADR-RES) | GI50 (OVCAR-4) | GI50 (A498) | GI50 (NCI-H23) | GI50 (SNB-75) | GI50 (HL-60) | GI50 (SK-MEL-2) | GI50 (MDA-N)
1 | CNC(=S)NN=C1NCCCN1 | > 100 | > 100 µM (inactive) | > 100 µM (inactive) | > 100 µM (inactive) | > 100 µM (inactive) | > 100 µM (inactive) | > 100 µM (inactive) | > 100 µM (inactive) | > 100 µM (inactive) | > 100 µM (inactive) | > 100 µM (inactive) | > 100 µM (inactive) | > 100 µM (inactive) | > 100 µM (inactive) | > 100 µM (inactive) | > 100 µM (inactive) | > 100 µM (inactive) | > 100 µM (inactive) | > 100 µM (inactive) | > 100 µM (inactive)
2 | CCOC(=O)C(=Cc1ccccc1Cl)C(=O)OCC | 1.72 | 0.705 µM (active) | 1.94 µM (inactive) | 1.41 µM (inactive) | 3.21 µM (inactive) | 1.43 µM (inactive) | 1.69 µM (inactive) | 2.13 µM (inactive) | 1.56 µM (inactive) | 2.03 µM (inactive) | 2.88 µM (inactive) | 1.31 µM (inactive) | 2 µM (inactive) | 2.27 µM (inactive) | 2.92 µM (inactive) | 1.66 µM (inactive) | 0.0174 µM (active) | 1.23 µM (inactive) | 2.03 µM (inactive) | 1.12 µM (active)
3 | C=C(Br)C[N+]12CN3CN(CN(C3)C1)C2 | > 100 | > 100 µM (inactive) | > 100 µM (inactive) | > 100 µM (inactive) | > 100 µM (inactive) | > 100 µM (inactive) | > 100 µM (inactive) | > 100 µM (inactive) | > 100 µM (inactive) | > 100 µM (inactive) | > 100 µM (inactive) | > 100 µM (inactive) | > 100 µM (inactive) | > 100 µM (inactive) | > 100 µM (inactive) | > 100 µM (inactive) | > 100 µM (inactive) | > 100 µM (inactive) | > 100 µM (inactive) | > 100 µM (inactive)
4 | CCCCCCCCCCCCCCCC(=O)OCC(COP(=O)(O)OCCNC(=O)CCSSc1ccccn1)OC(=O)CCCCCCCCCCCCCCC (centres undefined) | > 100 | > 100 µM (inactive) | > 100 µM (inactive) | > 100 µM (inactive) | > 100 µM (inactive) | > 100 µM (inactive) | > 100 µM (inactive) | > 100 µM (inactive) | > 100 µM (inactive) | > 100 µM (inactive) | > 100 µM (inactive) | > 100 µM (inactive) | > 100 µM (inactive) | > 100 µM (inactive) | > 100 µM (inactive) | > 100 µM (inactive) | > 100 µM (inactive) | > 100 µM (inactive) | > 100 µM (inactive) | > 100 µM (inactive)
5 | O=C(OC1CN2CCC1CC2)N(c1ccccc1)c1ccccc1 (centres undefined) | > 100 | 54.7 µM (inactive) | 80.5 µM (inactive) | > 100 µM (inactive) |  | 44.9 µM (inactive) | 65 µM (inactive) | 80.5 µM (inactive) | > 100 µM (inactive) | > 100 µM (inactive) | 34.7 µM (inactive) |  | > 100 µM (inactive) | > 100 µM (inactive) | 24.7 µM (inactive) | > 100 µM (inactive) | 46.2 µM (inactive) | 24.9 µM (inactive) | > 100 µM (inactive) | > 100 µM (inactive)
6 | CC(C)O/N=C/c1cc(NC(=S)OC(C)C)ccc1Cl | 36.9 | 13.5 µM (inactive) | > 62.2 µM (inactive) | 32.5 µM (inactive) | 42.3 µM (inactive) | 23.1 µM (inactive) | 29.7 µM (inactive) | 37.8 µM (inactive) | 13.8 µM (inactive) | 26 µM (inactive) | > 44.2 µM (inactive) | 50.9 µM (inactive) | 35.5 µM (inactive) | 31.7 µM (inactive) | 44.7 µM (inactive) | 43.9 µM (inactive) | 18.5 µM (inactive) | 20.4 µM (inactive) | 26 µM (inactive) | > 69.5 µM (inactive)
7 | CC(C)(C)c1cc(-c2ccc(-c3cc(C(C)(C)C)c(O)c(C(C)(C)C)c3)cc2)cc(C(C)(C)C)c1O | > 100 |  | > 100 µM (inactive) | > 100 µM (inactive) |  | > 100 µM (inactive) | > 100 µM (inactive) | > 100 µM (inactive) | > 100 µM (inactive) | > 100 µM (inactive) | > 100 µM (inactive) | > 100 µM (inactive) | > 100 µM (inactive) | > 100 µM (inactive) | > 100 µM (inactive) | > 100 µM (inactive) | > 100 µM (inactive) | > 100 µM (inactive) | > 100 µM (inactive) | > 100 µM (inactive)
8 | COc1cccc(NC(=O)c2c(N)n[nH]c2SC)c1 | > 100 | > 100 µM (inactive) | > 100 µM (inactive) |  | > 100 µM (inactive) | > 100 µM (inactive) | > 100 µM (inactive) | > 100 µM (inactive) | 84.9 µM (inactive) | > 100 µM (inactive) | > 100 µM (inactive) | > 100 µM (inactive) | > 100 µM (inactive) | > 100 µM (inactive) | > 100 µM (inactive) |  | > 100 µM (inactive) | > 100 µM (inactive) | > 100 µM (inactive) | > 100 µM (inactive)

From ChEMBL document CHEMBL1201862, “PubChem BioAssay data set” (2004)
